PMC8296708, “The pan HDAC inhibitor Givinostat improves muscle function and histological parameters in two Duchenne muscular dystrophy murine models expressing different haplotypes of the LTBP4 gene” (Skeletal Muscle, 2021)

Columns and labels:
mdx mice [1] = assay: Histopathological evaluation of severity of myodystrophy in mdx mice; assay type: in vivo, mouse (C57BL/10ScSn-Dmd^mdx/J); conditions: T16
Experimental: In these experiments, the histopathological evaluation of muscle inflammatory infiltrate, adipose tissue deposition, regeneration, and degeneration of the muscular tissue was also performed. The severity of myodystrophy in the different muscles (TA, GAS and DIA) was quantified through a weighted histopathological method that considered some parameters scored by severity and extension of the injury: muscle degeneration/necrosis, regeneration, inflammatory infiltrate, interstitial reaction, and adipose tissue deposition. Each parameter was classified by severity (mild = 1, moderate = 2, and severe = 3) and extension (focal = 1, multifocal = 2, and diffuse = 3). The individual severity score was calculated for each animal and an average score per group was calculated.

mdx mice [2] = assay: Myofiber cross-sectional area (CSA) in mdx mice; assay type: in vivo, mouse (C57BL/10ScSn-Dmd^mdx/J)
Source text: Tibialis anterior (TA), gastrocnemius (GAS), DIA, and heart were collected from mice maintained under isoflurane anesthesia and sacrificed by cervical dislocation. These muscles were collected from C57BL/10J wt and mdx (5 mice/group) at the end of treatments and from DBA/2J wt and D2.B10 mice (5 mice/group) at two different time points to be examined by a pathologist (for more details see Additional Table 1). Due to the results obtained by the functional tests, muscles from only some treatment groups were analyzed in both DMD models (see Additional Table 1). All the collected muscles were fixed in 10% buffered formalin solution (Bio-optica, Milan, Italy) at + 4 °C for at least 48 h. After fixation, muscular samples were transversely trimmed, caged, and paraffin embedded overnight with an Automated Vacuum Tissue Processor Floor (ETP, Histo-Line Laboratories) and included in paraffin blocks. Serial transverse cross-sections (4 μm thick) were cut with a microtome (Leica RM 2255), collected onto uncoated glass slides, and stained using a standard protocol for hematoxylin and eosin (Mayer hematoxylin & Aqueous G Eosin 1%, Bio-Optica) and Sirius Red staining (Direct Red 80, Sigma-Aldrich). For the image analysis and quantitation, hematoxylin and eosin- and Sirius Red-stained slides were examined with an Olympus BX51 light microscope. From each sample, 1 to 3 random microphotographs at the magnification of × 4 and × 10 (TA, GAS and heart) or × 20 (DIA) were collected using Image-Pro Plus system. The digital images were processed by a pathologist using ImageJ software (U.S. National Institutes of Health, Bethesda, MD, USA). To quantify CSA and centralized nuclei (%) on hematoxylin and eosin-stained sections, one hundred myofibers were manually measured for each muscle/mouse using a tablet pen (Wacom Intruos) and analyzed by the ImageJ software after a linear calibration of 150 μm. The fibrotic area, corresponding to the area stained in red, was compared to the total area of the tissue section, and the results were expressed as percentage fibrosis. The % of fibrosis of muscles in the different treatment groups was expressed by averaging the three values obtained from each muscle.
The deciles of the CSA of the animals treated with Givinostat at the different doses were plotted against the corresponding deciles of the vehicle-treated mice and a linear regression analysis was performed on natural [CSAtreated = b CSAcontrol + a] and log_transformed data [log(CSAtreated) = log(a) + b log(CSAcontrol)]. […] In case of untransformed data, this means that the effect of Givinostat treatment is additive and any decile of the CSAtreatment distribution may be derived from the control data summing up a constant quantity (S) to each fiber AREA of the control group (CSAtreated = CSAcontrol + S). In case of log_transformed data, the effect of Givinostat has to be considered as a multiplicative factor on any generic fiber of the muscle under evaluation, whose size, after the treatment, results K times larger in comparison to the control group value (CSAtreated […] = K × CSAcontrol, with K = 10^a). The S or K parameter values were then determined through an iterative estimation procedure, based on sum of squares (SSQ) minimization, directly comparing the CSA distribution observed in treated animals with that obtained summing up the S value or multiplying by K the CSA values of the control group.

## CCN(CC)Cc1ccc2cc(COC(=O)Nc3ccc(C(=O)NO)cc3)ccc2c1 [Givinostat]
Mdx mice [1]
  Histological evaluation of inflammatory infiltrate, adipose tissue deposition, regeneration, degeneration: not significantly different among the treatment groups
Mdx mice [2]; 37.5 mg/kg (same as vehicle)
  DIA fiber CSA, peak value: 550 μm^2
Mdx mice [2]; 37.5 mg/kg, after 105 days (vehicle peak 500)
  GAS fiber CSA, peak of distribution: 1100 μm^2
Mdx mice [2]; 37.5 mg/kg, multiplicative model
  K, multiplicative factor on GAS fiber CSA vs vehicle: 1.72
Mdx mice [2]; 10 and 37.5 mg/kg (vehicle 700)
  TA fiber CSA, peak value: 900 μm^2
Mdx mice [2]; additive model
  S, shift effect parameter on TA CSA vs vehicle: 140 μm^2
